{"source": "patent US20240382590A1", "about": "“NOVEL TUMOR-SPECIFIC ANTIGENS FOR CANCER STEM CELLS AND USES THEREOF” (UNIVERSITÉ DE MONTRÉAL, priority 2021, published 2024)", "key": {"cytolytic T lymphocytes": {"tested_on": "cytolytic T lymphocytes", "settings": "MAGEA4-derived paMAPs; cited from earlier work"}, "CD8+ T cells [1]": {"tested_on": "CD8+ T cells", "test": "Peptide-HLA tetramer staining after in vitro peptide-specific T cell expansion", "assay_type": "cell-based, human", "settings": "healthy donor PBMCs after 20 days in vitro stimulation", "procedure": "T cells were resuspended at 2×10^6/mL in AIM V media supplemented with 50 μg/mL gentamicin (ThermoFisher Scientific) and 1% HEPES. […] Cells were cultured for 10 days at 37° C., 5% CO2. On day 3 and 7, half the culture media was replaced with fresh culture media containing 100 IU/mL IL-2, 50 ng/mL IL-7, and 50 ng/mL IL-15 (day 3) and 200 IU/mL IL-2, 50 ng/mL IL-7, and 50 ng/mL IL-15 (day 7). On day 10, thawed PBMCs from the same donor were used to generate a new batch of T cell-depleted cells."}, "iPSCs [2]": {"tested_on": "iPSCs", "test": "Flow cytometry of surface HLA-A,B,C (QIFIKIT) and pluripotency markers on IFN-γ-treated iPSCs", "assay_type": "cell-based, human", "settings": "40 ng/mL IFN-γ, 72 h", "procedure": "(§1) hiPSC22 cells derived from adult human skin fibroblasts using defective polycistronic retroviruses expressing OCT4, SOX2, KLF4, and c-MYC were obtained from Takara Bio (Cellartis human iPS cell line 22). hiPSC22 cells were cultured in the Cellartis® DEF-CS™ 500 Basal Medium with Additives (Takara Bio) on coated (Cellartis DEF-CS 500 COAT-1, Takara Bio) cell culture vessels according to the manufacturer's instructions. Fibro-iPSC.1 and Fibro-iPSC.2 cells are biological replicates of the same iPS cell line reprogrammed from adult human dermal fibroblasts using lentiviruses expressing OCT4, SOX2, NANOG, and LIN28, as per (Hong et al., 2011), and were provided by Dr. Mick Bathia (McMaster University, Ontario, Canada). […]\nSingle-cell suspensions were stained with PerCP-Cy5.5 Mouse anti-Oct3/4, PE Mouse anti-SSEA-1, Alexa Fluor 647 Mouse anti-SSEA-4 antibodies or the respective isotypes (Human and Mouse Pluripotent Stem Cell Analysis Kit, BD Biosciences), APC/Cyanine7 anti-human/mouse SSEA-3 (BioLegend) or the APC-Cy™7 Rat IgM, K Isotype Control (BD Biosciences) according to the manufacturers' instructions. Surface HLA-A,B,C molecules were quantified using a QIFIKIT (FITC conjugate, Agilent Dako) as per the manufacturer's instructions. Flow cytometry experiments were performed on a ZE5 (Bio-Rad), and data were analyzed using the FlowJo software. […]"}, "iPSCs [3]": {"tested_on": "iPSCs", "test": "MS-based identification of MHC I-associated peptides from iPSCs", "parameters": "species or system human", "settings": "40 ng/mL IFN-γ, 72 h", "procedure": "as §1, with “Canada). Fibro-iPSC.1 and Fibro-iPSC.2 were cultured on Matrigel® (Corning, diluted in DMEM/F-12 from Gibco)-coated cell culture vessels in mTeSR1 medium ([…]), according to the manufacturer's instructions. All iPSCs were passaged using the Gentle Cell Dissociation Reagent ([…]) or were dissociated to single cells using TrypLE Express (Gibco) and washed with DPBS (Gibco) for downstream analyses. After removing 3-5×10^6 iPSCs for RNA-seq and 5×10^6 cells for flow cytometry, iPSCs were pelleted and stored at −80 degrees C. until MS analysis.” for “Canada).”"}, "CD8+ T cells [4]": {"tested_on": "CD8+ T cells", "test": "FEST assay (functional expansion of specific T cells, TCR Vβ CDR3 sequencing)", "assay_type": "cell-based, human", "settings": "for Number of TCRβ clonotypes specifically expanded: FEST assay, donor D12, stimulation with a single peptide or a pool; for TCRß clonotype (TCRß CDR3 sequence) amplified: Table 3B, in vitro stimulation with peptide alone or pool, donor D12", "procedure": "In vitro peptide-specific T cell expansion. Peptide-specific CD8^+ T cells from 4 healthy donors were expanded in vitro (D11, D12, D13, and D14). The expanded cells from D12 were used for FEST and tetramer staining assays, whereas the expanded cells from D11, D13, and D14 were used only for tetramer staining assays.\nT cells were cultured as previously described, with minor modifications (Danilova et al., 2018). Briefly, on day 0, thawed PBMCs from each healthy donor (BioIVT) were T cell-enriched using the Human Pan T cell isolation kit (Miltenyi Biotec). T cells were resuspended at 2×10^6/mL in AIM V media supplemented with 50 μg/mL gentamicin (ThermoFisher Scientific) and 1% HEPES. The T cell-negative fraction was irradiated at 30 Gy, washed, and resuspended at 2×10^6/mL in AIM V media supplemented with 50 μg/mL gentamicin and 1% HEPES. 2.5 ml per well of both T cells and irradiated T cell-depleted cells were added to a 6-well plate, along with either a peptide alone, a peptide pool (up to 6 MAPs per pool, 1 μg/mL final concentration for each MAP) or without peptide. Cells were cultured for 10 days at 37° C., 5% CO2. On day 3 and 7, half the culture media was replaced with fresh culture media containing 100 IU/mL IL-2, 50 ng/mL IL-7, and 50 ng/mL IL-15 (day 3) and 200 IU/mL IL-2, 50 ng/mL IL-7, and 50 ng/mL IL-15 (day 7). On day 10, thawed PBMCs from the same donor were used to generate a new batch of T cell-depleted cells. These cells were irradiated at 30 Gy and added to cultures at a 1:1 T cell:non-T cell ratio, along with 1 μg/mL of relevant peptide(s) or without peptide. On day 13 and 17, at least half the culture media was replaced with fresh culture media (final concentrations: 100 IU/mL IL-2, 25 ng/mL IL-7, and 25 ng/mL IL-15). On day 20, cells were harvested to perform tetramer staining and/or FEST assays.\nFEST assays. For FEST assays, CD8^+ cells were further isolated using the Human CD8^+ T Cell Isolation Kit (Miltenyi Biotec). As a negative control, CD8^+ T cells were also isolated from freshly thawed uncultured PBMCs of the same healthy donor. DNA was extracted from CD8^+ T cells using a QIAGEN DNA blood mini kit (QIAGEN). TCR Vβ CDR3 sequencing was performed using the survey resolution of the immunoSEQ platform (Adaptive Biotechnologies). Raw data exported from the immunoSEQ portal were processed with the FEST web tool (www.stat-apps.onc.jhmi.edu/FEST).\nGiven that paMAPs are appealing targets for immunotherapy, their immunogenicity was tested using in vitro T cell assays with peripheral blood mononuclear cells (PBMCs) from healthy donors. paMAPs were prioritized based on four criteria: i) the immunogenicity score predicted by Repitope, a machine learning algorithm that uses public T-cell receptor (TCR) databases to predict a probability of T cell response (Ogishi and Yotsuyanagi, 2019), ii) the HLA allotype presenting the paMAP (HLAA*02:01 or HLA-B*53:01 shared by the iPSCs and PBMCs donors), iii) expression in minimum 10% of the samples in at least one TOGA cancer type (FIG. 3), and iv) novel MAP status. The […] T cell response against 11 paMAPs was tested using peptide-HLA tetramer staining and/or more sensitive functional expansion of specific T cells (FEST) assays (Danilova et al., 2018). In FEST assays, TCR sequencing is performed on T cells stimulated or not with synthetic paMAPs. T cells were stimulated in vitro with autologous T cell-depleted PBMCs pulsed with individual or pooled (n=5 or 6) paMAPs (Tables 3A-B)."}}, "note": "Entries after “also recorded” stand apart in the source; their conditions may differ."}
{"substance": "KVLEHVVRV (listed as Homo sapiens) [previously reported paMAP derived from MAGEA4]", "values": [{"measurement": "Immunogenic in previous studies", "setting": "cytolytic T lymphocytes", "value": "immunogenic in previous studies"}]}
{"substance": "FLLPGVLLSEA (listed as Homo sapiens) [previously reported saMAP from UGT3A2]", "values": [{"measurement": "T-cell response (immunogenicity) by peptide-HLA tetramer staining", "setting": "CD8+ T cells [1]", "value": "immunogenic in one donor"}]}
{"substance": "GVYDGREHTV (listed as Homo sapiens) [previously reported paMAP derived from MAGEA4]", "values": [{"measurement": "Immunogenic in previous studies", "setting": "cytolytic T lymphocytes", "value": "immunogenic in previous studies"}]}
{"substance": "IFN-γ: recombinant human IFN-γ (Gibco) used to raise MHC I on iPSCs", "values": [{"measurement": "Increase in surface HLA-A/B/C levels", "setting": "iPSCs [2]; average of three fibroblast-derived iPSC samples", "value": 34, "unit": "fold"}, {"measurement": "Expression of canonical pluripotency markers", "setting": "iPSCs [2]; iPSCs", "value": "without affecting the expression of canonical pluripotency markers"}, {"measurement": "More unique MAPs detected than for untreated iPSCs", "setting": "iPSCs [3]", "value": "1.8-4.5 fold"}]}
{"substance": "KLAQIIRQV (listed as Homo sapiens) [paMAP]", "values": [{"measurement": "T-cell response (immunogenicity) by peptide-HLA tetramer staining", "setting": "CD8+ T cells [1]", "value": "one out of four donors"}]}
{"substance": "VTLSTYFHV (listed as Homo sapiens) [paMAP]", "values": [{"measurement": "Number of TCRβ clonotypes specifically expanded", "setting": "CD8+ T cells [4]", "value": "two to four"}, {"measurement": "TCRß clonotype (TCRß CDR3 sequence) amplified", "setting": "CD8+ T cells [4]; listed as pa_10", "value": "CASSKWGSYGYTF (SEQ ID NO: 75); also recorded: CASSLPDTTYEQYF (SEQ ID NO: 76)"}]}
{"substance": "LPMWKALLF (listed as Homo sapiens) [paMAP]", "values": [{"measurement": "Number of TCRβ clonotypes specifically expanded", "setting": "CD8+ T cells [4]", "value": "two to four"}, {"measurement": "TCRß clonotype (TCRß CDR3 sequence) amplified", "setting": "CD8+ T cells [4]; listed as pa_06", "value": "CASSGPGDQPQHF (SEQ ID NO: 83); also recorded: CASSEWGSRAGGGDTQYF (SEQ ID NO: 84)"}]}
{"substance": "ALYPQPPTV (listed as Homo sapiens) [paMAP]", "values": [{"measurement": "Number of TCRβ clonotypes specifically expanded", "setting": "CD8+ T cells [4]", "value": "two to four"}, {"measurement": "TCRß clonotype (TCRß CDR3 sequence) amplified", "setting": "CD8+ T cells [4]; listed as pa_11", "value": "CASSYRTGSAEAFF (SEQ ID NO: 77); also recorded: CASSLGGAYEQYF (SEQ ID NO: 78); also recorded: CASSYPQGGEQFF (SEQ ID NO: 79); also recorded: CATSRGTGVNTEAFF (SEQ ID NO: 80)"}]}
{"substance": "SLLGSSEILEV (listed as Homo sapiens) [paMAP]", "values": [{"measurement": "Number of TCRβ clonotypes specifically expanded", "setting": "CD8+ T cells [4]", "value": "two to four"}, {"measurement": "TCRß clonotype (TCRß CDR3 sequence) amplified", "setting": "CD8+ T cells [4]; listed as pa_12", "value": "CASSSRTDTYSPLHF (SEQ ID NO: 81); also recorded: CASSLGRWNSPLHF (SEQ ID NO: 82)"}, {"measurement": "T-cell response (immunogenicity) by peptide-HLA tetramer staining", "setting": "CD8+ T cells [1]", "value": "one out of four donors"}]}
